The source of these data is patent US7063946B2, “Methods, reagents, kits and apparatus for protein function analysis” (Meso Scale Technologies, LLC., priority 2001, dated 2006).

The test system of experiment [1] is autophosphorylation (phosphotyrosine). The experiment in a line: In vitro kinase library screen: autophosphorylation. In kind it is biochemical. As for the experimental part: (§1) Proteins were produced from DNA plasmids of Mock Luciferase, Promega, tyrosine kinase clone Spleen Tyrosine kinase (SYK, IMAGE ID# 3870426) and Eph receptor-A7 (EphA7, IMAGE ID# 3991628) (Incyte Genomics, CA) and immobilized on streptavidin or avidin coated NPT-IPR plates as described in the Example 7. To promote autophosphorylation in these immobilized and purified proteins, Mn++ ions were added in a 50 μl reaction containing 5 mM MgCl2, 5 mM MnCl2, 100 μM ATP, 25 mM Tris-HCl buffer pH 7.4, 0.05 mM Na3VO4, 0.004% TritonX-100, 2 mM DTT and EDTA-free protease inhibitor (Roche Molecular Biochemicals). This mixture was incubated with shaking at room temperature overnight to allow autophosphorylation. Following this incubation, wells were washed 2 times with TT-buffer and 2 times with water. Following this step, 50 ng Sulfo-TAG labeled anti-phosphotyrosine in buffer containing 25 mM Tris-HCl buffer pH 7.4, 5 mM MgCl2, 0.05 mM Na3VO4, 0.004% TritonX-100, 2 mM DTT and 0.05% IgG in a final volume of 50 μl was added followed by incubation at room temperature for 45 min. The unbound reagents were removed by one time washing with water, and the TAG label was detected in presence of 150 μl IPR assay buffer (0.4 mM Gly—Gly buffer, pH 7.8, 1 mM EDTA, 0.1 M TPA). The ECL signals were measured using an imaging plate reader.
(§2) Proteins were produced in an in vitro transcription and translation reaction as described in the Materials and Methods. […] The reaction was stopped by mixing with BB2 buffer. Biotinylated proteins from 50 μl of the mixture (representing 0.5 μl to 5 μl of TnT reaction) were immobilized onto streptavidin or avidin coated NPT-IPR plates by shaking at room temperature for 45 min. The activity of the immobilized protein towards pEY or autophosphorylation was further assayed by the methods described in examples 7 and 8.

Experiment [2] shares this test system. In words: Autophosphorylation activity assay of immobilized in vitro translated protein. It is filed as biochemical. The settings on record: 0.5 μl of TnT reaction. As for the experimental part: as §1
Another experiment deals with pEY. In words: In vitro kinase library screen: activity towards pEY. It is filed as biochemical. Particulars: 5 ul of expressed protein. As to the method: (§3) Proteins were produced in an in vitro transcription and translation reaction. […] The unbound components of the reaction containing endogenous kinases were removed by three washes with TT-buffer (25 mM Tris-HCl buffer pH 7.4 and 0.004% Triton), two five minutes washings with high-salt wash buffer (25 mM Tris-HCl buffer pH 7.4, 0.004% Triton, 1M NaCl and 5 mM DTT) and 3 more washes with TT-buffer. To these immobilized and purified proteins a tyrosine kinase substrate, 5 nM pEY (poly Glu-Tyr, Sigma, MO), was added in a 50 μl reaction solution containing 5 mM MgCl2, 5 mM MnCl2, 100 μM ATP, 25 mM Tris-HCl buffer pH 7.4, 0.05 mM Na3VO4, 0.004% TritonX-100, 2 mM DTT and EDTA-free protease inhibitor (Roche Molecular Biochemicals). This mixture was incubated with shaking at room temperature overnight to allow phosphorylation of the pEY substrate by the immobilized kinases. Following this incubation, 45 μl of this mixture was transferred to a streptavidin or avidin-coated NPT IPR plate coated with biotinylated anti-phosphotyrosine antibody (PY20, Zymed labs, CA) followed by incubation for 30 minutes at room temperature to allow the binding of the phosphorylated pEY substrate to the PY20 coated NPT plate. Following this binding step, 50 ng Sulfo-TAG labeled anti-phosphotyrosine in buffer containing 25 mM Tris-HCl buffer pH 7.4, 5 mM MgCl2, 0.05 mM Na3VO4, 0.004% TritonX-100, 2 mM DTT and 0.05% IgG was added followed by incubation at room temperature for 30 mm. The unbound reagents were removed by one time washing with water, and the TAG label was detected in presence of 150 μl IPR assay buffer (0.4 mM Gly-Gly buffer, pH 7.8, 1 mM EDTA, 0.1 M TPA). The ECL signals were measured using an imaging plate reader.
as §2

For the next experiment, the target named is T1, CSK (Homo sapiens, UniProt P41240).
T1 construct: specificity data for proteins generated from a library of eighteen full-length clones; host or cells: rabbit reticulocyte lysate, TnT coupled in vitro transcription/translation (cell-free)
T1 sequence (P41240 whole entry): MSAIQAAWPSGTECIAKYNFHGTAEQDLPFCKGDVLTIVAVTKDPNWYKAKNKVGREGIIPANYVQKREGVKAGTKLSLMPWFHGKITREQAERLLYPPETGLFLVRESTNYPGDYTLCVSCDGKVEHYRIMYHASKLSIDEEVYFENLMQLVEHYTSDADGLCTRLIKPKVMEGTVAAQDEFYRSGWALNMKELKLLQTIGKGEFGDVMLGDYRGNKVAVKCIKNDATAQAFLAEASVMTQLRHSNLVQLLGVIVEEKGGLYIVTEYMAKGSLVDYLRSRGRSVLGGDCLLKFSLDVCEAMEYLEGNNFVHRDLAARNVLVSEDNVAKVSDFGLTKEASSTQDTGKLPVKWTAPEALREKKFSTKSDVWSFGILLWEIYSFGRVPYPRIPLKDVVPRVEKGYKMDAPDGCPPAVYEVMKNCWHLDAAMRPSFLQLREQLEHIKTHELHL
In words: Kinase inhibitor profiling, pEY phosphorylation. It is filed as biochemical. As for the experimental part: as §3
(§4) Proteins were produced using 100 ng of plasmid DNA Mock (Luciferase, Promega) or tyrosine kinases (Fert2 IMAGE ID # 4485050, FGFR1 IMAGE ID # 4037899, Fgfr2 IMAGE ID # 2654352, Src IMAGE ID # 3156400, BMX IMAGE ID # 3919253, LCK IMAGE ID # 4191610, Epha7 IMAGE ID # 3991628, Ephb4 IMAGE ID # 4013934, Tek IMAGE ID # 3482498, HCK IMAGE ID # 4778819, BTK IMAGE ID # 4478463, CSK IMAGE ID # 4398416, SYK IMAGE ID # 3870426, FGR IMAGE ID # 4419973, PTK2B IMAGE ID # 4339456, FRK(IMAGE ID # 4515877, Kit IMAGE ID # 2644960, Fgfr-4 IMAGE ID # 4239139, NTRK3 IMAGE ID # 4181574, Kdr IMAGE ID # 4238984, Incyte Genomics, CA) and immobilized on SA or avidin coated NPT-IPR plates as described in previous examples. The unbound components of the translation reaction (including any endogenous kinases) were removed by 3 washes with TT-buffer (25 mM Tris-HCl buffer pH 7.4 and 0.004% Triton), two five minutes washes with high-salt wash buffer (25 mM Tris-HCl buffer pH 7.4, 0.004% Triton, 1M NaCl and 5 mM DTT) and 3 washes with TT-buffer. […] The mixture was incubated at room temperature for 10 mm before starting the kinase reaction by adding 25 μl of 200 μM ATP in buffer A. This mixture was incubated with intermittent shaking at room temperature for 2 hours to overnight to allow (a) phosphorylation of the pEY substrate and (b) autophosphorylation of the immobilized kinases. Autophosphorylation and phosphorylation of the pEY was measured as described in Examples 7 and 8.
(§5) The ECL signal in control wells produced by tyrosine kinases was compared to the wells containing inhibitor compounds. The signal produced from Mock was negligible.

In experiment [3] the target is T2, SYK (Homo sapiens, UniProt P43405).
T2 construct: autophosphorylation activity from full-length clones Spleen Tyrosine Kinase (SYK) and Eph receptor-A7 (EphA7); host or cells: rabbit reticulocyte lysate, TnT coupled in vitro transcription/translation (cell-free)
The experiment in a line: Kinase inhibitor profiling, pEY phosphorylation. It is filed as biochemical. As for the experimental part: as §3, §4, §5

The target in experiment [4] is T3, Kit (Mus musculus, UniProt P05532).
T3 construct: specificity data for proteins generated from a library of eighteen full-length clones; biotin on random lysines (biotin-Lys-tRNA); host or cells: rabbit reticulocyte lysate, coupled transcription/translation (TnT, Promega)
T3 sequence (P05532 25-979): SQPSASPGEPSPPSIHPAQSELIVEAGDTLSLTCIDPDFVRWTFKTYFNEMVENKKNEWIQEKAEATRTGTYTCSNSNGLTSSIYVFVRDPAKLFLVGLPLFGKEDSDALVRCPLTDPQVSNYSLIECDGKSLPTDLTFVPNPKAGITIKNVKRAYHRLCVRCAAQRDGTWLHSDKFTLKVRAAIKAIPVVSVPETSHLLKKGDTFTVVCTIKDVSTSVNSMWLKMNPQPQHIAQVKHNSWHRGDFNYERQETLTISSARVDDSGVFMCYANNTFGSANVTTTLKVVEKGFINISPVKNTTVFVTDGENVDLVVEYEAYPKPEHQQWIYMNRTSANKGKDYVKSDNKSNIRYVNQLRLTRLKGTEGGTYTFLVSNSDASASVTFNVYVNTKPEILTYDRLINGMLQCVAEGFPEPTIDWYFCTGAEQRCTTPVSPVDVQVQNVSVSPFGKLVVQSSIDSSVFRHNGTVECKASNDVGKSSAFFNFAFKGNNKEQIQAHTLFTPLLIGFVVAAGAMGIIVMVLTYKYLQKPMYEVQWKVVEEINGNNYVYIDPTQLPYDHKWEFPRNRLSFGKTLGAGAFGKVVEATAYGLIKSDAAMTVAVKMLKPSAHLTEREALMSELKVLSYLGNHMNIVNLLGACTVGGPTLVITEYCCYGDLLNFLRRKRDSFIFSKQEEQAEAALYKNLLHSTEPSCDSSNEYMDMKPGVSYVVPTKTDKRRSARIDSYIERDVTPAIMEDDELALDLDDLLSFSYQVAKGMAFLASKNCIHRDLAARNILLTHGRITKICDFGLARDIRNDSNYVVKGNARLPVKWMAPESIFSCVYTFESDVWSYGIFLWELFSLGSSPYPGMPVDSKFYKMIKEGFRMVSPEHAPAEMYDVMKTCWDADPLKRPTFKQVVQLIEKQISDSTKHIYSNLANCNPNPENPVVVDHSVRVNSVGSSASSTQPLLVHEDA
The experiment in a line: Kinase inhibitor profiling, pEY phosphorylation. In kind it is biochemical. As to the method:
as §3, §4, §5

The target of experiment [5] is T4, PTK2B (Homo sapiens, UniProt Q14289).
T4 construct: specificity data for proteins generated from a library of eighteen full-length clones; host or cells: rabbit reticulocyte lysate, TnT coupled in vitro transcription/translation (cell-free)
T4 sequence (Q14289 whole entry): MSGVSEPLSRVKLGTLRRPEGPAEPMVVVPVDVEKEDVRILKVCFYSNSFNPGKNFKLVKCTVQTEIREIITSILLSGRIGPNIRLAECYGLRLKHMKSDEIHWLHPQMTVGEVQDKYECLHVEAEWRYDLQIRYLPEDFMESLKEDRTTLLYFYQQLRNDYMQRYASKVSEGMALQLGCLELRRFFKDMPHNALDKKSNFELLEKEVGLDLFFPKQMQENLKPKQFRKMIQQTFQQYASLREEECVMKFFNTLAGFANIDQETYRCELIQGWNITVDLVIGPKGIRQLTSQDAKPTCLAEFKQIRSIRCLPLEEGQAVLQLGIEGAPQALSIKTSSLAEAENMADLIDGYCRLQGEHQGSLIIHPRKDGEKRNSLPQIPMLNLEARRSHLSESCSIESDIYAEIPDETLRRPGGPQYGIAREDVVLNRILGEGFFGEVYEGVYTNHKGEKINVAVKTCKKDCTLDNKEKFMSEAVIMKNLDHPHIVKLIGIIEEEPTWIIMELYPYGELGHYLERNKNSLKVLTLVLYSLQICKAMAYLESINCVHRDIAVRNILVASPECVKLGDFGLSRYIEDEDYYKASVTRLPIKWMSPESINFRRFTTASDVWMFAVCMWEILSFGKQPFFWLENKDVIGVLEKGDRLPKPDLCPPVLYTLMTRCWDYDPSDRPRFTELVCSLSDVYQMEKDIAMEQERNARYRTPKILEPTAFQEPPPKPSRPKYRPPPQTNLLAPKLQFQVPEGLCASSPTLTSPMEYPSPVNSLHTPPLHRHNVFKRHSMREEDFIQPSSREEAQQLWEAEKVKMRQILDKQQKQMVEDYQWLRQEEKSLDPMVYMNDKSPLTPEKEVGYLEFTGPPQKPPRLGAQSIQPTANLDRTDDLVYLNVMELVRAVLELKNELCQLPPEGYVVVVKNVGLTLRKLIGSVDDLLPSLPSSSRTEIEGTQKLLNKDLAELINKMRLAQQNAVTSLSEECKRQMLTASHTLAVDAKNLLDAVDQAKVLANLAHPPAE
The experiment in a line: Kinase inhibitor profiling, pEY phosphorylation. It is filed as biochemical. As for the experimental part: as §3, §4, §5

In experiment [6] the target is T5, Fgfr4 (Mus musculus, UniProt Q03142).
T5 construct: specificity data for proteins generated from a library of eighteen full-length clones; biotin on random lysines (biotin-Lys-tRNA); host or cells: rabbit reticulocyte lysate, coupled transcription/translation (TnT, Promega)
T5 sequence (Q03142 17-799): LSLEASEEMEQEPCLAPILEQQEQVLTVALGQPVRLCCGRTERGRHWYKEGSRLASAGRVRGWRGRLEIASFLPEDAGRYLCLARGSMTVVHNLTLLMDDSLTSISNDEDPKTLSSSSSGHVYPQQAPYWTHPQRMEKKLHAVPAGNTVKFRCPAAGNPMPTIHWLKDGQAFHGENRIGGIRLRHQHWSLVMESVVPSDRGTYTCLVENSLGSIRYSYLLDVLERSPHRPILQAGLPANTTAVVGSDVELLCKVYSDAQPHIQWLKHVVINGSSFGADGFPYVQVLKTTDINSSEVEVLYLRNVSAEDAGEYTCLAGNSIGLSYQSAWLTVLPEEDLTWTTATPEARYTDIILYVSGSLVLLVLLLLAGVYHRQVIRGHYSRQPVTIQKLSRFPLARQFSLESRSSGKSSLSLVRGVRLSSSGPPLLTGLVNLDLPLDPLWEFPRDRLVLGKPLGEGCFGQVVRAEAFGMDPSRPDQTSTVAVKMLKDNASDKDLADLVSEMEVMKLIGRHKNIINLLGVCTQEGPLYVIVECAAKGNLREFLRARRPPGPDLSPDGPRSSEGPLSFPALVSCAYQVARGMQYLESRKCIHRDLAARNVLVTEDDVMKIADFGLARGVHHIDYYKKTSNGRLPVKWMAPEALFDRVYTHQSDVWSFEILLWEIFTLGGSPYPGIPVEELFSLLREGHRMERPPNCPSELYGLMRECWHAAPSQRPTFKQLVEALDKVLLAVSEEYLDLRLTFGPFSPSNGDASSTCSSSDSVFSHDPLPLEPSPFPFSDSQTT
The experiment in a line: Kinase inhibitor profiling, pEY phosphorylation. In kind it is biochemical. As for the experimental part:
as §3, §4, §5

For another experiment, the target named is T6, HCK (Homo sapiens, UniProt P08631).
T6 construct: specificity data for proteins generated from a library of eighteen full-length clones; host or cells: rabbit reticulocyte lysate, TnT coupled in vitro transcription/translation (cell-free)
T6 sequence (P08631 whole entry): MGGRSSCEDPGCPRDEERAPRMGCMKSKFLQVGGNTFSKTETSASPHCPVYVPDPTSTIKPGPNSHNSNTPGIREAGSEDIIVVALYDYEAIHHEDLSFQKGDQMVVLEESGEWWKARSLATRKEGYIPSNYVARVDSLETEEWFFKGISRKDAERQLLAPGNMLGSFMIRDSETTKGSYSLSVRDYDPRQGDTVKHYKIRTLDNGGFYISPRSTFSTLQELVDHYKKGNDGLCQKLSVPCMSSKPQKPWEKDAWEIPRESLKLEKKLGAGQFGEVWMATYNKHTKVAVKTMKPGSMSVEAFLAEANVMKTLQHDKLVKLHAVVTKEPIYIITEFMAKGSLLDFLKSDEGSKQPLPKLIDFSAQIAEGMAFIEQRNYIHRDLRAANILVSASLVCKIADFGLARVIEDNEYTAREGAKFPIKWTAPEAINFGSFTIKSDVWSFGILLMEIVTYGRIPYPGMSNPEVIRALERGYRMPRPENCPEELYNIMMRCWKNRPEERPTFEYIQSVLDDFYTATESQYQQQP
In words: Kinase inhibitor profiling, pEY phosphorylation. In kind it is biochemical. As to the method: as §3, §4, §5

In experiment [7] the target is T2, SYK. The experiment in a line: Kinase inhibitor profiling, autophosphorylation. In kind it is biochemical. As to the method:
as §1, §4, §5

Experiment [8] deals with T3, Kit. The experiment in a line: Kinase inhibitor profiling, autophosphorylation. In kind it is biochemical. As to the method:
as §1, §4, §5

Experiment [9] addresses T4, PTK2B. The experiment in a line: Kinase inhibitor profiling, autophosphorylation. It is filed as biochemical. As for the experimental part: as §1, §4, §5
The target in experiment [10] is T5, Fgfr4. The experiment in a line: Kinase inhibitor profiling, autophosphorylation. In kind it is biochemical. As to the method:
as §1, §4, §5

The subject of experiment [11] is tyrosine kinases reported to be the target of each inhibitor. The settings on record: read-out: reported IC50 concentration (1× concentration); for the kinase reported to be the target of the inhibitor; cited from earlier work.
Another experiment concerns FRK. The experiment in a line: Kinase inhibitor profiling, autophosphorylation. It is filed as biochemical. As to the method:
as §1, §4, §5

The next experiment addresses T7, EGFR (Homo sapiens, UniProt P00533).
T7 construct: autophosphorylated tyrosines (self-phosphorylated with ATP before use); purchased Sigma Chemical Co, MO
The experiment in a line: EGFR binding assay, bound EGFR detected by its tyrosine kinase activity towards pEY. The settings on record: Grb2 plasmid, +EGFR, in presence of the peptide. As to the method: Proteins were produced in an in vitro transcription and translation reaction using 40–100 ng of plasmid DNA. […] The unbound components of the reaction containing endogenous kinases were removed by three washes with TT-buffer (25 mM Tris-HCl buffer pH 7.4 and 0.004% Triton), two five minutes washings with high-salt wash buffer (25 mM Tris-HCl buffer pH 7.4, 0.004% Triton, 1M NaCl and 5 mM DTT) and 3 more washes with TT-buffer. […] The unbound EGFR was washed by 4 times washing with TT-buffer (25 mM Tris-HCl buffer pH 7.4 and 0.004% Triton). The amount of EGFR bound to the reticulocyte lysate expressed protein was determined by detecting the kinase activity of EGFR. A tyrosine kinase substrate, 5 nM pEY (poly Glu-Tyr, Sigma, MO) was added in a 50 μl reaction containing 5 mM MgCl2, 5 mM MnCl2, 100 μM ATP, 25 mM Tris-HCl buffer pH 7.4, 0.05 mM Na3VO4, 0.004% TritonX-100, 2 mM DTT and EDTA-free protease inhibitor (Roche Molecular Biochemicals). This mixture was incubated with shaking at room temperature for 1 or 12 hours to allow phosphorylation of the pEY substrate by the EGFR. […]
The unbound reagents were removed by one time washing with TT-buffer (25 mM Tris-HCl buffer pH 7.4 and 0.004% Triton), and the TAG label was detected in presence of 150 μl IPR assay buffer (0.4 mM Gly-Gly buffer, pH 7.8, 1 mM EDTA, 0.1 M TPA). The ECL signals were measured using an imaging plate reader.

Where no end group is shown, it is not given here. [ ]: non-standard residue; d: D form. pY = N[C@@H](Cc1ccc(OP(=O)(O)O)cc1)C(=O)O

On to “3991628: IMAGE clone protein: EPHA7, Eph receptor A7 [compound 3991628]”, for which the ECL signal in [1] was 115,662. In addition, in [2], the ECL signal is given as 39,967 and the “fold higher ECL signal than background produced by Mock (Luciferase)” value is ~47 fold. In addition, the HTS signal in the experiment with pEY is given as 24,930.
On to `O=C1Nc2ccccc2/C1=C/c1ccc[nH]1` [Oxindole 1], for which the “Inhibition specificity towards pEY phosphorylation at 10X IC50, CSK” value at CSK is recorded as “M (medium inhibition (“M”=between 25 to 50% of the activity remaining))”. For the same compound, the “Inhibition specificity towards pEY phosphorylation at 10X IC50, SYK” value on SYK [3] is reported as “L (low inhibition (“L”=between 50–75% of the activity remaining))”. The “Inhibition specificity towards pEY phosphorylation at 10X IC50, Kit” value at Kit [4] is recorded as “H (high inhibition (“H”=less than 25% of the activity remaining))”. Further, on PTK2B [5], the “Inhibition specificity towards pEY phosphorylation at 10X IC50, PTK2B” value is reported as “M (medium inhibition (“M”=between 25 to 50% of the activity remaining))”. In addition, the “Inhibition specificity towards pEY phosphorylation at 10X IC50, Fgfr4” value on Fgfr4 [6] is on record as “M (medium inhibition (“M”=between 25 to 50% of the activity remaining))”. Further, on HCK, the “Inhibition specificity towards pEY phosphorylation at 10X IC50, HCK” value is on record as “L (low inhibition (“L”=between 50–75% of the activity remaining))”. Besides, the “Inhibition specificity towards Autophosphorylation at 10X IC50, SYK” value at SYK [7] is listed as “L (low inhibition (“L”=between 50–75% of the activity remaining))”. For the same compound, the “Inhibition specificity towards Autophosphorylation at 10X IC50, Kit” value on Kit [8] is on record as “M (medium inhibition (“M”=between 25 to 50% of the activity remaining))”. In addition, the “Inhibition specificity towards Autophosphorylation at 10X IC50, PTK2B” value on PTK2B [9] is “L (low inhibition (“L”=between 50–75% of the activity remaining))”. The “Inhibition specificity towards Autophosphorylation at 10X IC50, Fgfr4” value on Fgfr4 [10] was “L (low inhibition (“L”=between 50–75% of the activity remaining))”.
As for `CC(C)(C)n1nc(-c2ccc(Cl)cc2)c2c(N)ncnc21` [PP2], the “Inhibition specificity towards pEY phosphorylation at 10X IC50, Kit” value on Kit [4] was “L (low inhibition (“L”=between 50–75% of the activity remaining))”. Besides, the IC50 in [11] was 4 nM. In the experiment with FRK, the “Inhibition specificity towards Autophosphorylation at 10X IC50, FRK” value is recorded as “L (low inhibition (“L”=between 50–75% of the activity remaining))”.
For the compound “LPVPE(p)YINQSVPKRPAGSVC (LPVPE[pY]INQSVPKRPAGSVC) [Phosphopeptide]”, the ECL signal with EGFR is recorded as 7,348.
On to “Peptide: un-phosphorylated form of the EGFR 1063–1081 peptide (SEQ ID NO: 8) (LPVPEYINQSVPKRPAGSVC; Synthetic Fragment of EGFR-Y1068)”, for which the ECL signal with EGFR is 34,055.
